Reference: PubChem BioAssay (NCI)
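The concentration for 50% growth inhibition is given as GI50. The concentration for full growth arrest is given as TGI.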

Columns and labels:
Assay in all cases: growth of human tumour cells (NCI), 384-well format
786-0 renal = test system: 786-0 renal
A498 renal = test system: A498 renal
A549 NSCLC = test system: A549 NSCLC
ACHN renal = test system: ACHN renal
BT-549 breast = test system: BT-549 breast
CAKI-1 renal = test system: CAKI-1 renal
CCRF-CEM leukemia = test system: CCRF-CEM leukemia
COLO 205 colon = test system: COLO 205 colon
DU-145 prostate = test system: DU-145 prostate
EKVX NSCLC = test system: EKVX NSCLC
HCC-2998 colon = test system: HCC-2998 colon
HCT-116 colon = test system: HCT-116 colon
HCT-15 colon = test system: HCT-15 colon
HL-60(TB) leukemia = test system: HL-60(TB) leukemia
HOP-62 NSCLC = test system: HOP-62 NSCLC
HOP-92 NSCLC = test system: HOP-92 NSCLC
HS 578T breast = test system: HS 578T breast
HT29 colon = test system: HT29 colon
IGROV1 ovarian = test system: IGROV1 ovarian
K-562 leukemia = test system: K-562 leukemia
KM12 colon = test system: KM12 colon
LOX IMVI melanoma = test system: LOX IMVI melanoma
M14 melanoma = test system: M14 melanoma
MALME-3M melanoma = test system: MALME-3M melanoma
MCF7 breast = test system: MCF7 breast
MDA-MB-435 melanoma = test system: MDA-MB-435 melanoma
MDA-MB-468 breast = test system: MDA-MB-468 breast
MOLT-4 leukemia = test system: MOLT-4 leukemia
NCI-H226 lung = test system: NCI-H226 lung
NCI-H23 lung = test system: NCI-H23 lung
NCI-H322M lung = test system: NCI-H322M lung
NCI-H460 NSCLC = test system: NCI-H460 NSCLC
NCI-H522 lung = test system: NCI-H522 lung
NCI/ADR-RES ovarian = test system: NCI/ADR-RES ovarian
OVCAR-3 ovarian = test system: OVCAR-3 ovarian
OVCAR-4 ovarian = test system: OVCAR-4 ovarian
OVCAR-8 ovarian = test system: OVCAR-8 ovarian
PC-3 prostate = test system: PC-3 prostate
RPMI-8226 leukemia = test system: RPMI-8226 leukemia
RXF 393 renal = test system: RXF 393 renal
SF-268 CNS = test system: SF-268 CNS
SF-295 CNS = test system: SF-295 CNS
SF-539 CNS = test system: SF-539 CNS
SK-MEL-2 melanoma = test system: SK-MEL-2 melanoma
SK-MEL-28 melanoma = test system: SK-MEL-28 melanoma
SK-MEL-5 melanoma = test system: SK-MEL-5 melanoma
SK-OV-3 ovarian = test system: SK-OV-3 ovarian
SN12C renal = test system: SN12C renal
SNB-19 CNS = test system: SNB-19 CNS
SNB-75 CNS = test system: SNB-75 CNS
SW-620 colon = test system: SW-620 colon
TK-10 renal = test system: TK-10 renal
U251 glioblastoma = test system: U251 glioblastoma
UACC-257 melanoma = test system: UACC-257 melanoma
UACC-62 melanoma = test system: UACC-62 melanoma

O=C(Nc1cccc(Br)c1)Oc1ccc(Cl)c2cccnc12
GI50 ([…]-0 renal): 14.3 µM | TGI (786-0 renal): 27.5 µM | GI50 (A498 renal): 4.23 µM | TGI (A498 renal): 13.1 µM | GI50 (A549 NSCLC): 11 µM | TGI (A549 NSCLC): 23.8 µM | GI50 (ACHN renal): 3.98 µM | TGI (ACHN renal): 15 µM | GI50 (BT-549 breast): 3.75 µM | TGI (BT-549 breast): 15.4 µM | GI50 (CAKI-1 renal): 2.61 µM | TGI (CAKI-1 renal): 6.82 µM | GI50 (CCRF-CEM leukemia): 1.6 µM | TGI (CCRF-CEM leukemia): 3.01 µM | GI50 (COLO 205 colon): 4.37 µM | TGI (COLO 205 colon): 12.1 µM | GI50 (DU-145 prostate): 4.76 µM | TGI (DU-145 prostate): 19.7 µM | GI50 (EKVX NSCLC): 2.6 µM | TGI (EKVX NSCLC): 5.8 µM | GI50 (HCC-2998 colon): 15.4 µM | TGI (HCC-2998 colon): 28.9 µM | GI50 (HCT-116 colon): 2.02 µM | TGI (HCT-116 colon): 3.77 µM | GI50 (HCT-15 colon): 3.74 µM | TGI (HCT-15 colon): 10.6 µM | GI50 (HL-60(TB) leukemia): 0.42 µM | TGI (HL-60(TB) leukemia): 1.42 µM | GI50 (HOP-62 NSCLC): 3.43 µM | TGI (HOP-62 NSCLC): 6.55 µM | GI50 (HOP-92 NSCLC): 3.59 µM | TGI (HOP-92 NSCLC): 9.38 µM | GI50 (HS 578T breast): 5.86 µM | TGI (HS 578T breast): 18.9 µM | GI50 (HT29 colon): 14.4 µM | TGI (HT29 colon): 27.6 µM | GI50 (IGROV1 ovarian): 1.49 µM | TGI (IGROV1 ovarian): 3.35 µM | GI50 (K-562 leukemia): 13.5 µM | TGI (K-562 leukemia): 27 µM | GI50 (KM12 colon): 7.59 µM | TGI (KM12 colon): 19.7 µM | GI50 (LOX IMVI melanoma): 3.36 µM | TGI (LOX IMVI melanoma): 12.3 µM | GI50 (M14 melanoma): 2.68 µM | TGI (M14 melanoma): 6.58 µM | GI50 (MALME-3M melanoma): 2.79 µM | TGI (MALME-3M melanoma): 7.77 µM | GI50 (MCF7 breast): 2.04 µM | TGI (MCF7 breast): 4.28 µM | GI50 (MDA-MB-435 melanoma): 5.71 µM | TGI (MDA-MB-435 melanoma): 19.1 µM | GI50 (MDA-MB-468 breast): 2.54 µM | TGI (MDA-MB-468 breast): 4.16 µM | GI50 (MOLT-4 leukemia): 1.73 µM | TGI (MOLT-4 leukemia): 3.16 µM | GI50 (NCI-H226 lung): 1.62 µM | TGI (NCI-H226 lung): 3.12 µM | GI50 (NCI-H23 lung): 1.98 µM | TGI (NCI-H23 lung): 3.91 µM | GI50 (NCI-H322M lung): 15.3 µM | TGI (NCI-H322M lung): 31.4 µM | GI50 (NCI-H460 NSCLC): 3.22 µM | TGI (NCI-H460 NSCLC): 9.1 µM | GI50 (NCI-H522 lung): 2.01 µM | TGI (NCI-H522 lung): 4.04 µM | GI50 (NCI/ADR-RES ovarian): 2.57 µM | TGI (NCI/ADR-RES ovarian): 4.9 µM | GI50 (OVCAR-3 ovarian): 1.91 µM | TGI (OVCAR-3 ovarian): 3.64 µM | GI50 (OVCAR-4 ovarian): 4.88 µM | TGI (OVCAR-4 ovarian): 15.9 µM | GI50 (OVCAR-8 ovarian): 2.29 µM | TGI (OVCAR-8 ovarian): 4.86 µM | GI50 (PC-3 prostate): 2.37 µM | TGI (PC-3 prostate): 5.64 µM | GI50 (RPMI-8226 leukemia): 1.65 µM | TGI (RPMI-8226 leukemia): 3.08 µM | GI50 (RXF 393 renal): 2.63 µM | TGI (RXF 393 renal): 9.07 µM | GI50 (SF-268 CNS): 3.33 µM | TGI (SF-268 CNS): 12.1 µM | GI50 (SF-295 CNS): 4.71 µM | TGI (SF-295 CNS): 16.3 µM | GI50 (SF-539 CNS): 3.26 µM | TGI (SF-539 CNS): 10.4 µM | GI50 (SK-MEL-2 melanoma): 2.39 µM | TGI (SK-MEL-2 melanoma): 4.87 µM | GI50 (SK-MEL-28 melanoma): 3.5 µM | TGI (SK-MEL-28 melanoma): 9.22 µM | GI50 (SK-MEL-5 melanoma): 2.01 µM | TGI (SK-MEL-5 melanoma): 4.53 µM | GI50 (SK-OV-3 ovarian): 15.4 µM | TGI (SK-OV-3 ovarian): 28.9 µM | GI50 (SN12C renal): 3.56 µM | TGI (SN12C renal): 14.9 µM | GI50 (SNB-19 CNS): 4.2 µM | TGI (SNB-19 CNS): 15.4 µM | GI50 (SNB-75 CNS): 2.96 µM | TGI (SNB-75 CNS): 8.36 µM | GI50 (SW-620 colon): 4.45 µM | TGI (SW-620 colon): 13.8 µM | GI50 (TK-10 renal): 18.5 µM | TGI (TK-10 renal): 47.4 µM | GI50 (U251 glioblastoma): 3.9 µM | TGI (U251 glioblastoma): 11.2 µM | GI50 (UACC-257 melanoma): 2.6 µM | TGI (UACC-257 melanoma): 4.37 µM | GI50 (UACC-62 melanoma): 3.73 µM | TGI (UACC-62 melanoma): 10.8 µM
